Test results: paper PMC4301037, “Identification and Structure–Function Analysis of Subfamily Selective G Protein-Coupled Receptor Kinase Inhibitors” (ACS Chemical Biology, 2014)
pIC50: −log10 of the molar value. Where two headings read alike, the source gives them in different places.

Experiments:
bovine GRK5 = target: T1, bovine GRK5 (Bos taurus, UniProt P43249); test: Primary DSF inhibitor screen, GRK5; assay type: binding; conditions: 10 μM compound; for ΔTm, primary screen, GRK5 / ΔTm at 10 µM: 2 μM kinase, relative to DMSO control; for ΔTm at 10 µM: read-out: ΔTm, primary screen, GRK5; for rank in the primary screen, GRK5: rank ordering of compounds in primary DSF screen
T1 construct: when using full-length kinases as the receptor[37] instead of isolated kinase domains; made in house
T1 sequence (P43249 whole entry, the tested form may be a part): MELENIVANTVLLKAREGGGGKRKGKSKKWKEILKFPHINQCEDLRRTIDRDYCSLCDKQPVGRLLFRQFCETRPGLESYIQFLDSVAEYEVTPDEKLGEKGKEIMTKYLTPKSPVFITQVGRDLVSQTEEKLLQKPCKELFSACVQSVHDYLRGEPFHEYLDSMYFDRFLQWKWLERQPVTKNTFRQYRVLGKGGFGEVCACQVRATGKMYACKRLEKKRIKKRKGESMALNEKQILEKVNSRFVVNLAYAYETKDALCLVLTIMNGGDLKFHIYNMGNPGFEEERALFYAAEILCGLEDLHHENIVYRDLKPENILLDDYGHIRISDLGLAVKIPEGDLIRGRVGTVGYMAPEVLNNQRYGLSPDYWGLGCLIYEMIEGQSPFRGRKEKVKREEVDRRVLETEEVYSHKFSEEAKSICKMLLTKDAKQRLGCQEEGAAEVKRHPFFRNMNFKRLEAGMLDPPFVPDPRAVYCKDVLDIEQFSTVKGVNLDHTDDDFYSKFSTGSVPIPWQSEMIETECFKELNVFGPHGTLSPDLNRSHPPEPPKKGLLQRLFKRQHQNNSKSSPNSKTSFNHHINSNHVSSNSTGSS

GRK2 [1] = target: T2, GRK2 (Homo sapiens, UniProt P25098, S670A); test: DSF retest (confirmation), GRK2; assay type: binding; conditions: for GRK2 Tm: 0.2 mg mL^–1 kinase; for GRK2 ΔTm: relative to intrinsic melting point of the kinase
T2 construct: made in house
T2 sequence (P25098 1-689 S670A): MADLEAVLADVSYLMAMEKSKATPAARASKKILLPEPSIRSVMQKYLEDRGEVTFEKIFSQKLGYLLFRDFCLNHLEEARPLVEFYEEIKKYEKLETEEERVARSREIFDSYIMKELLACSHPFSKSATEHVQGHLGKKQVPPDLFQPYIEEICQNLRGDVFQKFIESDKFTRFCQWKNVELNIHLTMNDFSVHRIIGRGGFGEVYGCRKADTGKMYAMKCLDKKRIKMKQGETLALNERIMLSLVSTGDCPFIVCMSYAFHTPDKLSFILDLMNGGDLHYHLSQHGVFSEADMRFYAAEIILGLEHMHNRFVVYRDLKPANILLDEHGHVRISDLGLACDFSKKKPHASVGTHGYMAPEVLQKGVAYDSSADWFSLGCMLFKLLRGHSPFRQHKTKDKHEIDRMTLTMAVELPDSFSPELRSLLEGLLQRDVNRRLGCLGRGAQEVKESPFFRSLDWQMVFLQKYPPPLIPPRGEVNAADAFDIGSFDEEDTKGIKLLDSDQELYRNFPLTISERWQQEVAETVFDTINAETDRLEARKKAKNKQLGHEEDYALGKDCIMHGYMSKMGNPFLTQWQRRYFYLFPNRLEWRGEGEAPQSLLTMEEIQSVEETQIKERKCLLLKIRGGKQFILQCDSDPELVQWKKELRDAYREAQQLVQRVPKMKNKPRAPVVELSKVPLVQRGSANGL

GRK5 [2] = target: T3, GRK5 (Bos taurus, UniProt P43249); test: DSF retest (confirmation), GRK5; assay type: binding, bovine; conditions: for GRK5 Tm: 0.2 mg mL^–1 kinase; for GRK5 ΔTm: relative to intrinsic melting point of the kinase
T3 construct: when using full-length kinases as the receptor[37] instead of isolated kinase domains; made in house
T3 sequence (P43249 whole entry, the tested form may be a part): as the sequence (P43249 whole entry, the tested form may be a part) above

protein kinase A (PKA) = target: T4, protein kinase A (PKA) (Mus musculus, UniProt P05132); test: DSF retest (confirmation), PKA; assay type: binding; conditions: for PKA Tm: 0.2 mg mL^–1 kinase; for PKA ΔTm: relative to intrinsic melting point of the kinase
T4 construct: His tag (inferred from pET15b vector and Ni-NTA column) (N); host or cells: E. coli Rosetta(DE3)pLysS
Description: Fourteen compounds (Figure 1a–c), including all GRK2 hits except staurosporine, and the most stabilizing pyrrolopyrimidine-containing compounds were obtained from GSK and retested using DSF on GRKs representing each vertebrate subfamily (GRK1, 2, and 5) (Table 1). […] The ability of these compounds to shift the Tm of the related AGC family kinase member protein kinase A (PKA) was also assessed (Table 1). In no case was ΔTm greater for PKA than for one of the tested GRKs. […]. There was no correlation for GRK1 (Figure 2c).
DSF was conducted using a ThermoFluor plate reader (Johnson & Johnson) in a buffer containing 20 mM HEPES, pH 7.0, 5 mM MgCl2, 2 mM DTT, and 1 mM CHAPS with 0.2 mg mL^–1 final concentration of GRK or PKA and 100 μM 1-anilinonaphthalene-8-sulfonic acid.[14]

GRK2 [3] = target: T5, GRK2 (Bos taurus, UniProt P21146, S670A); test: In vitro phosphorylation assay (tubulin, 5 μM ATP), GRK2; assay type: biochemical, bovine; conditions: for IC50: read-out: GRK2 log IC50 (converted)
T5 construct: made in house
T5 sequence (P21146 1-689 S670A): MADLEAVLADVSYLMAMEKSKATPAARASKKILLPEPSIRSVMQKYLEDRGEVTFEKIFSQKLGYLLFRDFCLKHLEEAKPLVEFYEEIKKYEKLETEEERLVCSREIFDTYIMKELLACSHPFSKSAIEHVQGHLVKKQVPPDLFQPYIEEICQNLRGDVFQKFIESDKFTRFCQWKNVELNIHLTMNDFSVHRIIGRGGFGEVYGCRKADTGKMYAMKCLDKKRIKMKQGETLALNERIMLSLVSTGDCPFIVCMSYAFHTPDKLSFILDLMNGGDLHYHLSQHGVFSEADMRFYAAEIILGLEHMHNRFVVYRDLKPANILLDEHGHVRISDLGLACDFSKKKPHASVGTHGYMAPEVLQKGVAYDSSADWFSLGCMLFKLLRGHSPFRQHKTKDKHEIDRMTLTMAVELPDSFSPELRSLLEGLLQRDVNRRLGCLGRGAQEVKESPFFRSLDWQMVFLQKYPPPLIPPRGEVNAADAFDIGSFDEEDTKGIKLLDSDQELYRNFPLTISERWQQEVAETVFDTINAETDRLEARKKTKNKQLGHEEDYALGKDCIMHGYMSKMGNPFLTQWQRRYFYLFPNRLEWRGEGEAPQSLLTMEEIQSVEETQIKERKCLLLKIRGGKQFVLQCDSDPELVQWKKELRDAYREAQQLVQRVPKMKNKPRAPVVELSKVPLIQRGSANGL

GRK5 [4] = target: T3, GRK5; test: In vitro phosphorylation assay (tubulin, 5 μM ATP), GRK5; assay type: biochemical, bovine; conditions: for IC50: read-out: GRK5 log IC50 (converted)
PKA = target: T6, PKA (Mus musculus, UniProt P05132); test: PKA inhibition assay (ADP-Glo, CREBtide, 100 μM ATP); assay type: biochemical; conditions: logarithm of IC50 (−3.3 corresponds to 0.5 mM, footnote c); 438 nM PKA, 100 μM ATP, CREBtide; read-out: PKA log IC50 (converted)
T6 construct: His tag (inferred from pET15b vector and Ni-NTA column) (N); host or cells: E. coli Rosetta(DE3)pLysS

GRK1 [5] = target: T7, GRK1 (Bos taurus, UniProt P28327); test: DSF retest (confirmation), GRK1; assay type: binding, bovine; conditions: for GRK1 Tm: 0.2 mg mL^–1 kinase; for GRK1 ΔTm: relative to intrinsic melting point of the kinase
T7 construct: Bovine GRK1_1–535, bovine and human GRK2S670A; made in house
T7 sequence (P28327 1-535): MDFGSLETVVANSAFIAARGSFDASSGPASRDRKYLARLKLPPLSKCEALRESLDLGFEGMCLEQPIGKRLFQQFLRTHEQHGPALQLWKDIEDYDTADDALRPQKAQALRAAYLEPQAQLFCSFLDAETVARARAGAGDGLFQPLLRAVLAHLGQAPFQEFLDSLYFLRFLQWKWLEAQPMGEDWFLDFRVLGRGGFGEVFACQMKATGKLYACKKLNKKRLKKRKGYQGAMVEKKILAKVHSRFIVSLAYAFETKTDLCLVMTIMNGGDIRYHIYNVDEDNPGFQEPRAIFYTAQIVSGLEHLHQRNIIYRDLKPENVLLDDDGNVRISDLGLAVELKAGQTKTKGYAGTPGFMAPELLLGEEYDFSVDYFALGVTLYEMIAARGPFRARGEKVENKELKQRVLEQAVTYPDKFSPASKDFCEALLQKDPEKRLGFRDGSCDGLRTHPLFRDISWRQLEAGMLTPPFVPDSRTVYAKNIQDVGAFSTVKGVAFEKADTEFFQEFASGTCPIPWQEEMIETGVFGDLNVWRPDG

GRK1 [6] = target: T7, GRK1; test: In vitro phosphorylation assay (tubulin, 5 μM ATP), GRK1; assay type: biochemical, bovine; conditions: for IC50: read-out: GRK1 log IC50 (converted)
GRK1, 2, and 5 and PKA = test: Ssel selectivity score calculated from inhibition of GRK1, 2, 5 and PKA
human GRK2S670A = target: T8, human GRK2S670A (Homo sapiens, UniProt P25098, S670A); test: Primary DSF (differential scanning fluorimetry) inhibitor screen, GRK2; assay type: binding
T8 construct: when using full-length kinases as the receptor[37] instead of isolated kinase domains; made in house
T8 sequence (P25098 1-689 S670A): T2 sequence (P25098 1-689 S670A)

[7] = selectivity score from inhibition of GRK1, 2, 5 and PKA, <0.5 selective

SMILES	ΔTm, primary screen, GRK5 (bovine GRK5)	ΔTm at 10 µM (bovine GRK5)	rank in the primary screen, GRK5 (bovine GRK5)	GRK2 Tm (GRK2 [1])	GRK2 ΔTm (GRK2 [1])	GRK5 Tm (GRK5 [2])	GRK5 ΔTm (GRK5 [2])	PKA Tm (protein kinase A (PKA))	PKA ΔTm (protein kinase A (PKA))	IC50 (GRK2 [3])	IC50 (GRK5 [4])	IC50 (PKA)	GRK1 Tm (GRK1 [5])	GRK1 ΔTm (GRK1 [5])	IC50 (GRK1 [6])	Ssel (GRK1, 2, and 5 and PKA; [7])	other results
CCCN1CCC(Oc2cc(Nc3nc(Nc4cccc(F)c4C(N)=O)c4cc[nH]c4n3)c(OC)cc2Cl)CC1 [GSK1713088A]	7.4 °C	7.37 °C	11	44.2 °C	6.7 °C	40.3 °C	13.6 °C	45.8 °C	0.4 °C	6.31 µM	3.16 µM	> 501 µM					
CNC(=O)c1ncccc1Nc1nc(Nc2cc3c(cc2OC)CCCN3C(=O)CN(C)C)nc2[nH]ccc12 [GSK2220400A]	6.9 °C	6.87 °C	13	38.8 °C	1.2 °C	30.5 °C	3.8 °C	45.4 °C	0.0 °C	200 µM	6.31 µM	> 501 µM	28.6 °C	8.7 °C	10 µM	0.770	lower potency against GRK1 (GRK1 [6]; relative to GSK2163632A): 100 fold; GRK1 fold (increase in potency relative to paroxetine) (GRK1 [6]): 40 fold; GRK2 fold (increase in potency relative to paroxetine) (GRK2 [3]): 0.0063 fold; GRK5 fold (increase in potency relative to paroxetine) (GRK5 [4]): 20 fold
CN[C@@H]1C[C@H]2O[C@@](C)([C@@H]1OC)n1c3ccccc3c3c4c(c5c6ccccc6n2c5c31)C(=O)NC4 [Staurosporine]	12 °C	11.9 °C															ΔTm, primary screen, GRK2 (human GRK2S670A; 10 μM compound, 2 μM kinase, relative to DMSO control): 5.4 °C; ΔTm at 10 µM (human GRK2S670A; read-out: ΔTm, primary screen, GRK2, 10 μM compound, 2 μM kinase, relative to DMSO control): 5.37 °C
CCCN1CCC(c2ccc(Nc3nc(Nc4cc(F)ccc4C(N)=O)c4cc[nH]c4n3)c(OC)c2)CC1 [GSK1326255A]		6.35 °C		42.4 °C	4.9 °C	29.3 °C	2.5 °C	48.5 °C	3.1 °C	7.94 µM		> 501 µM				0.586	ΔTm at 10 µM (human GRK2S670A; 10 μM compound, 2 μM kinase, relative to DMSO control, read-out: ΔTm, primary screen, GRK2): 3.29 °C; pIC50 (GRK1 [6]): 3.30
Fc1ccc([C@@H]2CCNC[C@H]2COc2ccc3c(c2)OCO3)cc1 [paroxetine]								50.1 °C	4.7 °C			> 501 µM					Ssel (GRK1, 2, and 5 and PKA): 0.085
CC1=C(C(=O)Nc2ccc3[nH]ncc3c2)C(c2ccc(F)cc2)NC(=O)N1 (stereo not drawn) [GSK180736A]								49.2 °C	3.8 °C				25.3 °C	5.4 °C	> 1000 µM	0.022	
COc1cc2c(cc1Nc1nc(Nc3ccsc3C(N)=O)c3cc[nH]c3n1)N(C(=O)CN(C)C)CCC2 [GSK2110236A]	8.3 °C	8.36 °C	7	40.6 °C	3.0 °C	32.6 °C	5.8 °C	46.6 °C	1.2 °C	20 µM	3.16 µM	> 501 µM	18.5 °C	–1.4 °C	0.631 µM	0.561	GRK1 fold (increase in potency relative to paroxetine) (GRK1 [6]): 631 fold; GRK2 fold (increase in potency relative to paroxetine) (GRK2 [3]): 0.063 fold; selectivity for GRK5 over GRK2 (GRK5 [4]; from IC50 values of Table 2): 6 fold; GRK5 fold (increase in potency relative to paroxetine) (GRK5 [4]): 40 fold
COc1cc2c(cc1Nc1nc(Nc3ccsc3C(N)=O)c3cc[nH]c3n1)N(C(=O)CN(C)C)CCC2(C)C [GSK2163632A]	9.2 °C	9.25 °C	4			33.0 °C	6.3 °C	48.5 °C	3.1 °C			> 501 µM	26.3 °C	6.4 °C	0.126 µM	0.199	
